Measurements from patent publication US20090117123A1, “IMMU[…] HPV E6 AND E7 PROTEINS” (National Health Research Institutes, priority 2007, published 2009).

What was measured:
[1] = biological target: HLA A11 heavy chain (His-Tag fusion) with β2-microglobulin (human); assay: MHC-peptide complex formation assay, ELISA; relative to positive and negative control O.D.
[2] = system: HLA A24 heavy chain and β2-microglobulin; assay: MHC-peptide complex formation assay (ELISA), HLA A24; assay type: binding
Experimental: The HLA A24 heavy chain and β2-microglobulin were expressed and purified following the method described above. These proteins were incubated with synthetic peptides containing potential CTL-epitopes identified by the computational programs mentioned in Example 1. The formation of HLA A24-β2-peptide complexes was determined by the ELISA assay also described in Example 1 above.

[3] = system: T cells of HLA-A24 transgenic mice; assay: IFN-γ secretion of splenocytes from peptide-immunized HLA-A24 transgenic mice; assay type: in vivo, mouse; conditions: HLA-A24 transgenic mice immunized with peptide; FIG. 5B
Experimental: FIG. 5B is a diagram showing IFN-γ secretion of splenocytes obtained from HLA-A24 transgenic mice immunized with peptide […] (A24 CYE, SEQ ID NO:5) or a control peptide.
(§1) A 96-well plate, having nitrocellulose membrane inserted in each well, was coated with […] anti-IFN-γ antibody (clone MAB1-D1K, 10 μg/ml in 1×PBS, from Mabtech, Macka, Sweden) and was incubated at 4° C. for 24 hours. The plate was washed four times with PBS, and then incubated with […] per well RPMI medium containing 10% fetal bovine serum (FBS) for 1-3 hours. Next, splenocytes were suspended in RPMI containing 10% FBS and 1×10^5 or 5×10^5 splennocytes (200 μl) were added to each well with or without A11VVY. The ELISPOT assay was performed in triplicate wells for each experimental condition. The plate was incubated in an incubator supplied with 5% CO2 at 37° C. for 2 hours. After being washed for 2-3 times, the plate was incubated with avidin-peroxidase complex reagent for one hour at room temperature and then washed three times with 0.05% (w/v) Tween 20 in PBS and three times with PBS. 100 μl aminoethylcarbazole staining solution were then added to each well to develop stained spots. After 4-6 minutes, the plate was washed with running tap water to stop the reaction of developing the spots, which were counted by a computational image analysis.

[4] = system: splenocytes from C57BL/6-HLA-A11 transgenic mouse; assay: IFN-γ ELISPOT of splenocytes from peptide-immunized HLA-A11 transgenic mouse; assay type: in vivo; conditions: HLA-A11 transgenic mouse immunized s.c. with peptide, ISA-51 and T helper epitope; FIG. 5A
Experimental: C57BL/6-HLA-A11 transgenic mouse, derived from the Animal Technology Institute in Taiwan, was used in this study. 50 μg synthetic peptides having the amino acid sequence of […] (A11VVY; SEQ ID NO:1) were formulated with incomplete adjuvant ISA-51 in the presence of a peptide […] (SEQ ID NO:17), which contains a T helper cell epitope derived from hepatitis B virus. The composition thus formed was injected subcutaneously into the HLA-A11 transgenic mouse two times every two weeks. Seven days after the final injection, splenotyes from the immunized mouse were isolated and cultured in a medium containing A11VVY. The level of IFN-γ secreted to the medium was determined by Enzyme-linked immunospot (ELISPOT) as described below.
A 96-well plate, having nitrocellulose membrane inserted in each well, was coated with […] anti-IFN-γ antibody (clone MAB1-D1K, 10 μg/ml in 1×PBS, from Mabtech, Macka, Sweden) and was incubated at 4° C. for 24 hours. The plate was washed four times with PBS, and then incubated with […] per well RPMI medium containing 10% fetal bovine serum (FBS) for 1-3 hours. […] After 4-6 minutes, the plate was washed with running tap water to stop the reaction of developing the spots, which were counted by a computational image analysis.

[5] = system: CD8^+ T cells of C57BL/6-HLA-A11 transgenic mice; assay: HLA-A11-peptide tetramer staining of CD8+ T cells from peptide-immunized mice; assay type: in vivo, mouse; conditions: HLA-A11 transgenic mice immunized s.c. twice; splenocytes cultured 5 days with peptide and rIL-2; FIG. 6A
Experimental: C57BL/6-HLA-A11 transgenic mice were immunized s.c. twice with peptide VVY (SEQ ID NO:1) or control peptide SSC (SEQ ID NO:12) together with a T helper cell epitope […] (SEQ ID NO:17), and incomplete adjuvant ISA-51. Seven days after the second immunization, splenocytes were harvested from the immunized mice, cultivated in vitro in the presence of peptide VVY or SSC (10 μg/ml) and rIL-2 (10 U/ml) for five days. The cells were then double stained with HLA-A11-peptide tetramer VVY-tet-PE or SCC-tet-PE and a FITC-conjugated anti-CD8 antibody to detect CD8^+ T cells that bind to either VVY or SSC.
The tetramers were prepared as follows. Purified HLA-A11 heavy chains and β2-microglobulins were refolded in the presence of VVY or SSC in a refolding buffer containing 100 mM Tris-HCl (pH 8), 400 mM L-arginine, 2 mM EDTA, 5 mM reduced glutathione, 0.5 mM oxidized glutathione for 48 hrs at 4° C. […]
The tetramers thus prepared were incubated with the peptide-challenged T cells in a FACS staining buffer for 20 min at room temperature and a FITC conjugated anti-CD8 antibody was then added to the incubation system and kept on ice for 20 min. The stained cells were analyzed by flow cytometry (FACScalibur BD Bioscience, Calif., USA) in the presence of 1 μg/ml of propidium iodide (Sigma, Mo., USA) to exclude dead cells.

[6] = system: ^51Cr-labeled T2/HLA-A11 cells; assay: Chromium release assay with splenocytes from peptide-immunized mice; assay type: in vivo, mouse; conditions: HLA-A11 transgenic mice immunized twice with the peptide; FIG. 6B
Experimental: (§2) Next, the CTL effect induced by peptide VVY was examined as follows. HLA-A11 transgenic mice were immunized twice with peptide VVY, SIP, or ATL, all of which were derived from HPV 18, following the procedures described above in this Example. Splenocytes (2×10^6/ml) isolated from the immunized mice were cultured with 10 μg/ml of either VVY or A11-SCC and 10 U/ml rIL-2 for at 37+ C. for 5 days. A standard chromium release assay was performed to determine cytolytic activity. In brief, T2/HLA-A11 cells were labeled with 100 μCi of ^51Cr (PerkinElmer, Waltham, Mass., USA) for 1.5 hrs at 37° C. and washed afterwards three times with cold RPMI. The cultured splenocytes, used as effector cells, were mixed with 5×10^3 the ^51Cr-labeled T2/HLA-A11 cells at various ratios in triplicate wells in a U-bottom 96-well plate (Nunc, Rochester, N.Y., USA). After 4-5 hrs incubation, supernatants from each well were collected and the radioactivity contained therein was measured using a γ-counter (PARKARD, Ramsey, Mich., USA). The specific lysis rate was determined following the formula: Specific lysis rate (%)=(Samplecpm−Spontaneous releasecpm)/(Maximum releasecpm−Spontaneous releasecpm)%.

[7] = system: splenocytes from HLA-A11/K^b transgenic mice; assay: IFN-γ ELISPOT of peptide-stimulated splenocytes from DNA plasmid-immunized mice; assay type: cell-based, mouse; conditions: splenocytes of mice immunized i.m. with plasmid pE3/19K/HPV18E6E7, stimulated with the peptide; FIG. 7A
Experimental: as §1
Plasmid pE3/19K/HPV18E6E7 was constructed following the conventional recombinant technology. This plasmid contains the E3/19K leader sequence and a nucleotide sequence encoding a fusion protein composed of the H-2K^b-restricted CTL epitope SII (derived from ovalbumin) and HPV18E6E7 polypeptide, which includes epitopes VVY, SIP, and ATL.
(§3) Seven to ten days after the second immunization, the mice were sacrificed and their splenocytes collected.
The splenocytes werestimulated with peptide VVY, SII, SIP, ATL, or a control peptide and the levels of IFN-γ secreted thereby were determined with the Enzyme-linked immunospot (ELISPOT) assay described in Example 1 above.

[8] = system: ^51Cr-labeled T2/HLA-A11 cells; assay: Chromium-release assay, peptide-specific CTL effects after DNA plasmid immunization; assay type: cell-based, mouse; conditions: mice immunized with plasmid pE3/19K/HPV18E6E7; FIG. 7B
Experimental: as §2, §3
Next, peptide-specific CTL effects were examined by the chromium-release assay described in Example 4 above.

… (94-102 of HPV 58 E6) (peptide)
relative binding % [1]: 30%

CYEQLGDSS (listed as Human papillomavirus) [24-32 of HPV 52 E7]
HLA A24 restriction (HLA A24-β2-peptide complex formation) [2]: HLA A24 restricted epitopes | IFN-γ secretion by peptide-specific T cells [3]: incuded A24CYE-specific T cells to secrete IFN-γ

VVYRDSIPH (listed as Human papillomavirus) [54-62 of HPV 18 E6]
IFN-γ secreting splenocytes [4]: large amount | induction of VVY-specific CD8^+ T cells (tetramer staining) [5]: induced VVY-specific CD8^+ T cells | CTL effects (specific lysis) [6]: induced CTL effects | induction of IFN-γ secretion [7]: induced IFN-γ secretion | peptide-specific CTL effects [8]: induced CTL effects

RAHYNIVTF (listed as Human papillomavirus) [control peptide]
induction of IFN-γ secretion [7]: not | peptide-specific CTL effects [8]: not

VDLLCHEQL (listed as Human papillomavirus) [23-31 of HPV 18 E7]
HLA A24 restriction (HLA A24-β2-peptide complex formation) [2]: HLA A24 restricted epitopes

… (64-72 of HPV 52 E6) (peptide)
relative binding % [1]: 30%

WLSLLVPFV [A2-restricted peptide, used as control peptide for immunization]
IFN-γ secreting splenocytes [4]: little

ATLQDIVLH (listed as Human papillomavirus) [peptide derived from HPV 18]
CTL effects (specific lysis) [6]: not | induction of IFN-γ secretion [7]: not

SIINFEKL (listed as Mus musculus)
induction of IFN-γ secretion [7]: induced IFN-γ secretion | peptide-specific CTL effects [8]: not

SIPHAACHK (listed as Human papillomavirus) [peptide derived from HPV 18]
CTL effects (specific lysis) [6]: not | induction of IFN-γ secretion [7]: not

… (54-62 of HPV 18 E6) (peptide)
relative binding % [1]: 30%

SSCSSCPLSK (listed as Human herpesvirus) [A11-SCC, positive control A11-restricted peptide derived from EBV LMP2 protein]
induction of VVY-specific CD8^+ T cells (tetramer staining) [5]: did not show this effect
